Where two headings read alike, the source gives them in different places.
Legend:
Format in all cases: biochemical
PI3Kβ = PI3Kβ (Homo sapiens (Human), UniProt P42338); test: TR-FRET enzymatic assay of PI3K isoforms (PI3Kβ); settings: TR-FRET, 2×Km ATP, 2 μM PIP2, incubated for 30 minutes at 25° C.; read-out: β IC50
Procedure: (§1) The compounds of formula (I) were characterized for their enzymatic activity against the PI3K isoforms. Certain compounds of the present application, including certain compounds of formula (II) and (III) were also characterized for their enzymatic activity against PI3K isoforms. The activities were measured using a time-resolved fluorescence resonance energy transfer (TR-FRET) assay.

PI3Kδ = PI3Kδ (Homo sapiens (Human), UniProt O00329); test: TR-FRET enzymatic assay of PI3K isoforms (PI3Kδ); settings: 2×Km ATP, 2 μM PIP2, incubated for 30 minutes at 25° C., read-out: δ IC50
Chain of PI3Kδ (O00329 whole entry, canonical isoform): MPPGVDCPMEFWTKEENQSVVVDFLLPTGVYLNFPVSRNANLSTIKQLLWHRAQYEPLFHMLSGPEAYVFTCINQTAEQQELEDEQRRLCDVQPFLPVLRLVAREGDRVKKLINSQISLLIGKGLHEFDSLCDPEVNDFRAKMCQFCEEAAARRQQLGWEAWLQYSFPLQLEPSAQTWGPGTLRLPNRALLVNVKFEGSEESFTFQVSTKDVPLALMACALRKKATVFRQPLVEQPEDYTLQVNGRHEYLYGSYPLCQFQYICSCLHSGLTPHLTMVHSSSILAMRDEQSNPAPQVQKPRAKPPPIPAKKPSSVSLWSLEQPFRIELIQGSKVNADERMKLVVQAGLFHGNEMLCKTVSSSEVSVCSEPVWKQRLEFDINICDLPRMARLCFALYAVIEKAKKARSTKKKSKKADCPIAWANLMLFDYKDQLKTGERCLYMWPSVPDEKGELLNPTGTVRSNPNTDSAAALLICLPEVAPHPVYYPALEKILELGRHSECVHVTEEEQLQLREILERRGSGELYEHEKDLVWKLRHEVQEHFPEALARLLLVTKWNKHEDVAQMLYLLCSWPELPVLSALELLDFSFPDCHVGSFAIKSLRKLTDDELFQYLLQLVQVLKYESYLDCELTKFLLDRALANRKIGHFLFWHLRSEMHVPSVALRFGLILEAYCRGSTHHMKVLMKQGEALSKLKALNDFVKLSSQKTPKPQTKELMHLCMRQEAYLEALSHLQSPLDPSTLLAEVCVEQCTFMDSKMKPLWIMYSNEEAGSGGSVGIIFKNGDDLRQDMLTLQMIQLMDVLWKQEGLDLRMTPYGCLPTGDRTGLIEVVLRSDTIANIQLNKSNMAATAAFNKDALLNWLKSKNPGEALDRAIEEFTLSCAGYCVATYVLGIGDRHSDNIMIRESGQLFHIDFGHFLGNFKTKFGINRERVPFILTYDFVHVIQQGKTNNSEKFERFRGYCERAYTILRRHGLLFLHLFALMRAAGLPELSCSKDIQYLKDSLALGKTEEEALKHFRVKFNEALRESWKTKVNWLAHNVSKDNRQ
Chain of PI3Kδ (P27986 whole entry partner, canonical isoform): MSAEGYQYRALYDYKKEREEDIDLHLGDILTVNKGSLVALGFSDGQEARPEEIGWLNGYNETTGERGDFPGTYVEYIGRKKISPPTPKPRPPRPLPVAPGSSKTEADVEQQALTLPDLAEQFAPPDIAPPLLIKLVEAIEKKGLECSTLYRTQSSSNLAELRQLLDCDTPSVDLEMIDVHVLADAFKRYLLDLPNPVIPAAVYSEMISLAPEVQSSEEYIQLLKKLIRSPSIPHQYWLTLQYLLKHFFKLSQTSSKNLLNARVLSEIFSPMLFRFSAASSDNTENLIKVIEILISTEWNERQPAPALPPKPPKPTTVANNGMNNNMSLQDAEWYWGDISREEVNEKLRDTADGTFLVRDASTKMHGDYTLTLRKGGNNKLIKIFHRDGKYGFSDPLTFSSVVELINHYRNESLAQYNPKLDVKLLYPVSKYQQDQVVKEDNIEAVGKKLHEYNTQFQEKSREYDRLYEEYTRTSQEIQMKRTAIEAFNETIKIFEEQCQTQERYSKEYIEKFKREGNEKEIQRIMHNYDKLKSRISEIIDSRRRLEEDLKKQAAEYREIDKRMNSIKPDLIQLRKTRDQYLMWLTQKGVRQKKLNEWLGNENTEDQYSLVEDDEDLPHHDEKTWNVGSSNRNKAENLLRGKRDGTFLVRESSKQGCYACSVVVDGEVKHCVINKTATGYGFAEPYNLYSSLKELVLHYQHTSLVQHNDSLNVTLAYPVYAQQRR
Procedure: as §1

PI3Kγ = PI3Kγ (Homo sapiens (Human), UniProt P48736); test: TR-FRET enzymatic assay of PI3K isoforms (PI3Kγ); settings: read-out: γ IC50
Chain of PI3Kγ (P48736 whole entry, canonical isoform): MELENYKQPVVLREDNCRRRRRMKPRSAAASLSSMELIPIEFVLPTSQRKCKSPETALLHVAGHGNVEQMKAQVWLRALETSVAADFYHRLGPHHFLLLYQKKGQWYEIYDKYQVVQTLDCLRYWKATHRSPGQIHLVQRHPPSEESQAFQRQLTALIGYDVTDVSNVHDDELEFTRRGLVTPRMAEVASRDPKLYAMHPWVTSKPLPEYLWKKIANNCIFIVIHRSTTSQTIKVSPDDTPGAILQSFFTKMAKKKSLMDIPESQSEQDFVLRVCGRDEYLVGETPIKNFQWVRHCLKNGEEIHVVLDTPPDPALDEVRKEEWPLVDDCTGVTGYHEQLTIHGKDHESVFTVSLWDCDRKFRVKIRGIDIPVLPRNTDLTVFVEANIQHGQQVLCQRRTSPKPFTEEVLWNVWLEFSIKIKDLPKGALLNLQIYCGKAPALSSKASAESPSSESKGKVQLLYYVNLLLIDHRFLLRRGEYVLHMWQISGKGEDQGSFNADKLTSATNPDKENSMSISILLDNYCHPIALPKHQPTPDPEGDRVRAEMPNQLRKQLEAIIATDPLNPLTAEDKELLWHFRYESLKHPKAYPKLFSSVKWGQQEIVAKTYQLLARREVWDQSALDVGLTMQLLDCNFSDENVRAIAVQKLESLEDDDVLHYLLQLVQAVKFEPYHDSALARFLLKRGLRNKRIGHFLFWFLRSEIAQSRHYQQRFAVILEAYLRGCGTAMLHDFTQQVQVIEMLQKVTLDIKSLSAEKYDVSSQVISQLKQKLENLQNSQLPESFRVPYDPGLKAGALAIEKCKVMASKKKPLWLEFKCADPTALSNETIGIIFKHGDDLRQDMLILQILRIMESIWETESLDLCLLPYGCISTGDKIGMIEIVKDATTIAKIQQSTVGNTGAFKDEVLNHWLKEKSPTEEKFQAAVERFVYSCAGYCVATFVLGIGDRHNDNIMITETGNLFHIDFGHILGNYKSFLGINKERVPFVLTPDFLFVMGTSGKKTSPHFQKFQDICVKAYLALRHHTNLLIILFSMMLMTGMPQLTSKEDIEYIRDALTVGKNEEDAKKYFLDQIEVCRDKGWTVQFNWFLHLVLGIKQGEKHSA
Chain of PI3Kγ (Q8WYR1 whole entry partner, canonical isoform): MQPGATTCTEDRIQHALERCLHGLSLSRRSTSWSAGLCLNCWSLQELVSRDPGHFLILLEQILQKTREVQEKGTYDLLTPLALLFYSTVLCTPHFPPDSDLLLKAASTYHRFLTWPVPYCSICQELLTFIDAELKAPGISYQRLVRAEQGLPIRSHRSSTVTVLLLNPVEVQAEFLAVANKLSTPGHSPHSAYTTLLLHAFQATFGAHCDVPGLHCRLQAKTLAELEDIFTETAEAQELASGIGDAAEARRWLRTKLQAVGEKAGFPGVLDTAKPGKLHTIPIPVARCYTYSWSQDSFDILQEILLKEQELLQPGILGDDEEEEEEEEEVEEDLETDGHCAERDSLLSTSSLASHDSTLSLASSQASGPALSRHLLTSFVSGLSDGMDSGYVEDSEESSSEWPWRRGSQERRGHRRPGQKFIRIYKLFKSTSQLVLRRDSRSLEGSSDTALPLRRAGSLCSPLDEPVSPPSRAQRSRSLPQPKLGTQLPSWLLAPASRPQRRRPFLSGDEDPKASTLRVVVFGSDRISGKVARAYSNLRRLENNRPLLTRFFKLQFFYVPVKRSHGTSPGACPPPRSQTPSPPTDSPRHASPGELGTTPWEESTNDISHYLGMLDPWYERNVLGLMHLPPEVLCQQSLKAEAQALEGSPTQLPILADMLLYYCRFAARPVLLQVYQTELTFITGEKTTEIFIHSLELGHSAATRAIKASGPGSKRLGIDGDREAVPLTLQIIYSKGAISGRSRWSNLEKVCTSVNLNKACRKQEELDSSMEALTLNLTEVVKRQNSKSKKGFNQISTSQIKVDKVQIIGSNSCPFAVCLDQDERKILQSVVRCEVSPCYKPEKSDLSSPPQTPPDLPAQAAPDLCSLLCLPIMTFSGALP
Procedure: as §1

[1] = TR-FRET, 2×Km ATP, 2 μM PIP2, PI3Kγ at 2 nM, incubated for 30 minutes at 25° C.

Chain of PI3Kβ (P42338 whole entry, canonical isoform): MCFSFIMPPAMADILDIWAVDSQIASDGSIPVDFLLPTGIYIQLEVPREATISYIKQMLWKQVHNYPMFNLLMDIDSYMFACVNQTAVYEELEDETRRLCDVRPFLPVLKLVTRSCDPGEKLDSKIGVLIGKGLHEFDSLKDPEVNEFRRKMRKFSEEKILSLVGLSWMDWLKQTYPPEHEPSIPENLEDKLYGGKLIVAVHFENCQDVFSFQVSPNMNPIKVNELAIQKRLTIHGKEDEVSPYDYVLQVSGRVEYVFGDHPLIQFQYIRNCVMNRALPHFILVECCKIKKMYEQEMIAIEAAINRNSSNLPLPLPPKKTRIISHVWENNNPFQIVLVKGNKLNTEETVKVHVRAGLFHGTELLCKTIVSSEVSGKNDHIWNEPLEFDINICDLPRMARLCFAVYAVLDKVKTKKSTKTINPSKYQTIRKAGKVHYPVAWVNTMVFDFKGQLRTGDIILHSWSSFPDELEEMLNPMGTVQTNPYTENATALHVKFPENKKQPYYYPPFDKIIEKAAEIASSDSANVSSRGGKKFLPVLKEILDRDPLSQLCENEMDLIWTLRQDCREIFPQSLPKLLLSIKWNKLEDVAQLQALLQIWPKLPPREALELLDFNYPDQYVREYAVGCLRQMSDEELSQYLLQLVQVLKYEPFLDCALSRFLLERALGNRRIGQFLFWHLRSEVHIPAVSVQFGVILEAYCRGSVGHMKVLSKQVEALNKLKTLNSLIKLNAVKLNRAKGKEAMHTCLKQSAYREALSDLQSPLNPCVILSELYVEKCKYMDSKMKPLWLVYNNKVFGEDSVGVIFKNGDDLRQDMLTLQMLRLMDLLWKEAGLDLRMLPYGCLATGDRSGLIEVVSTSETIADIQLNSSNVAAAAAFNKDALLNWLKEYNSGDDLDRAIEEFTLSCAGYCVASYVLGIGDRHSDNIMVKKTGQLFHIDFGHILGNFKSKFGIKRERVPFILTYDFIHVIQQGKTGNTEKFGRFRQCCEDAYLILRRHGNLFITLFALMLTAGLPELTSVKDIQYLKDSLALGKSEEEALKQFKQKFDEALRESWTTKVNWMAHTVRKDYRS
Chain of PI3Kβ (P27986 whole entry partner, canonical isoform): as the sequence (P27986 whole entry partner, canonical isoform) above

Compound	IC50 (PI3Kβ) [nM]	IC50 (PI3Kδ) [nM]	IC50 (PI3Kγ; [1]) [nM]	IC50 (PI3Kγ) [nM]
C[C@H](Nc1ncnc(N)c1C#N)c1nc2cccc(Cl)c2c(=O)n1-c1cccc(NC(=O)NS(=O)(=O)C2CC2)c1 [Compound 81, (S)—N-((3-(2-(1-((6-amino-5-cyanopyrimidin-4-yl)amino)ethyl)-5-chloro-4-oxoquinazolin-3(4H)-yl)phenyl)carbamoyl)cyclopropanesulfonamide]	350	2	2800	
N#Cc1c(N)ncnc1N1CCC[C@H]1c1nc2cccc(Cl)c2c(=O)n1-c1cccc(NC(=O)NCC2OCCO2)c1 [Compound 82, (S)-1-((1,3-dioxolan-2-yl)methyl)-3-(3-(2-(1-(6-amino-5-cyanopyrimidin-4-yl)pyrrolidin-2-yl)-5-chloro-4-oxoquinazolin-3(4H)-yl)phenyl)urea]	29	16	8600	
CCNC(=O)Nc1cccc(-n2c([C@@H]3CCCN3c3ncnc(N)c3C#N)nc3cccc(Cl)c3c2=O)c1 [Compound 83, (S)-1-(3-(2-(1-(6-amino-5-cyanopyrimidin-4-yl)pyrrolidin-2-yl)-5-chloro-4-oxoquinazolin-3(4H)-yl)phenyl)-3-ethylurea]	13	9	3300	
C[C@H](Nc1ncnc2[nH]cnc12)c1nc2cccc(Cl)c2c(=O)n1-c1cccc(NC(N)=O)c1 [Compound 86, (S)-1-(3-(2-(1-((9H-purin-6-yl)amino)ethyl)-5-chloro-4-oxoquinazolin-3(4H)-yl)phenyl)urea]	22	19	4300	
CNC(=O)Nc1cccc(-n2c([C@H](C)Nc3ncnc4[nH]cnc34)nc3cccc(Cl)c3c2=O)c1 [Compound 87, (S)-1-(3-(2-(1-((9H-purin-6-yl)amino)ethyl)-5-chloro-4-oxoquinazolin-3(4H)-yl)phenyl)-3-methylurea]	21	33	4500	
C[C@H](Nc1ncnc(N)c1C#N)c1nc2cccc(Cl)c2c(=O)n1-c1cccc(NC(N)=O)c1 [Compound 88, (S)-1-(3-(2-(1-((6-amino-5-cyanopyrimidin-4-yl)amino)ethyl)-5-chloro-4-oxoquinazolin-3(4H)-yl)phenyl)urea]	4	2	2700	
CNC(=O)Nc1cccc(-n2c([C@H](C)Nc3ncnc(N)c3C#N)nc3cccc(Cl)c3c2=O)c1 [Compound 89, (S)-1-(3-(2-(1-((6-amino-5-cyanopyrimidin-4-yl)amino)ethyl)-5-chloro-4-oxoquinazolin-3(4H)-yl)phenyl)-3-methylurea]	6	6	4300	
CCNC(=O)Nc1cccc(-n2c([C@H](C)Nc3ncnc4[nH]cnc34)nc3cccc(Cl)c3c2=O)c1 [Compound 91, (S)-1-(3-(2-(1-((9H-purin-6-yl)amino)ethyl)-5-chloro-4-oxoquinazolin-3(4H)-yl)phenyl)-3-ethylurea]	32	19	1400	
CCNC(=O)Nc1cccc(-n2c([C@H](C)Nc3ncnc(N)c3C#Cc3ccccn3)nc3cccc(Cl)c3c2=O)c1 [Compound 92]	16	1	1600	
CCNC(=O)Nc1cccc(-n2c([C@H](C)Nc3nc(C)nc(N)n3)nc3cccc(Cl)c3c2=O)c1 [Compound 93, (S)-1-(3-(2-(1-((4-amino-6-methyl-1,3,5-triazin-2-yl)amino)ethyl)-5-chloro-4-oxoquinazolin-3(4H)-yl)phenyl)-3-ethylurea]	70	110	3700	
C[C@H](Nc1ncnc(N)c1C#N)c1nc2cccc(Cl)c2c(=O)n1-c1cccc(NC(=O)Nc2ccccc2C(=O)O)c1 [Compound 96, (S)-2-(3-(3-(2-(1-((6-amino-5-cyanopyrimidin-4-yl)amino)ethyl)-5-chloro-4-oxoquinazolin-3(4H)-yl)phenyl)ureido)benzoic acid]	230	5	2600	
C[C@H](Nc1ncnc(N)c1C#N)c1nc2cccc(Cl)c2c(=O)n1-c1cccc(NC(=O)Nc2ccccc2S(=O)(=O)O)c1 [Compound 97, (S)-2-(3-(3-(2-(1-((6-amino-5-cyanopyrimidin-4-yl)amino)ethyl)-5-chloro-4-oxoquinazolin-3(4H)-yl)phenyl)ureido)benzenesulfonic acid]	120	5	6000	
C[C@H](Nc1ncnc(N)c1C#N)c1nc2cccc(Cl)c2c(=O)n1-c1cccc(NC(=O)Nc2ccccc2OCC(=O)O)c1 [Compound 98, (S)-2-(2-(3-(3-(2-(1-((6-amino-5-cyanopyrimidin-4-yl)amino)ethyl)-5-chloro-4-oxoquinazolin-3(4H)-yl)phenyl)ureido)phenoxy)acetic acid]	58	29	3300	
C[C@H](Nc1ncnc(N)c1C#N)c1nc2cccc(Cl)c2c(=O)n1-c1cccc(NC(=O)Nc2ccc(Cl)c(C(F)(F)F)c2)c1 [Compound 99, (S)-1-(3-(2-(1-((6-amino-5-cyanopyrimidin-4-yl)amino)ethyl)-5-chloro-4-oxoquinazolin-3(4H)-yl)phenyl)-3-(4-chloro-3-(trifluoromethyl)phenyl)urea]	8	19	1600	
C[C@H](Nc1ncnc(N)c1C#N)c1nc2cccc(Cl)c2c(=O)n1-c1cccc(NC(=O)Nc2ccccc2Cl)c1 [Compound 100, (S)-1-(3-(2-(1-((6-amino-5-cyanopyrimidin-4-yl)amino)ethyl)-5-chloro-4-oxoquinazolin-3(4H)-yl)phenyl)-3-(2-chlorophenyl)urea]	1	3	1400	
C[C@H](Nc1ncnc(N)c1C#N)c1nc2cccc(Cl)c2c(=O)n1-c1cccc(NC(=O)Nc2ccccc2C(F)(F)F)c1 [Compound 101, (S)-1-(3-(2-(1-((6-amino-5-cyanopyrimidin-4-yl)amino)ethyl)-5-chloro-4-oxoquinazolin-3(4H)-yl)phenyl)-3-(2-(trifluoromethyl)phenyl)urea]	5	13	2500	
C[C@H](Nc1ncnc2[nH]cnc12)c1nc2cccc(Cl)c2c(=O)n1-c1cccc(NC(=O)Nc2ccccc2C(F)(F)F)c1 [Compound 102, (S)-1-(3-(2-(1-((9H-purin-6-yl)amino)ethyl)-5-chloro-4-oxoquinazolin-3(4H)-yl)phenyl)-3-(2-(trifluoromethyl)phenyl)urea]	7	31	670	
C[C@H](Nc1ncnc2[nH]cnc12)c1nc2cccc(Cl)c2c(=O)n1-c1cccc(NC(=O)Nc2c(Cl)cccc2Cl)c1 [Compound 104, (S)-1-(3-(2-(1-((9H-purin-6-yl)amino)ethyl)-5-chloro-4-oxoquinazolin-3(4H)-yl)phenyl)-3-(2,6-dichlorophenyl)urea]	8	30	740	
C[C@H](Nc1ncnc(N)c1C#N)c1nc2cccc(Cl)c2c(=O)n1-c1cccc(NC(=O)Nc2ccccc2C#N)c1 [Compound 106, (S)-1-(3-(2-(1-((6-amino-5-cyanopyrimidin-4-yl)amino)ethyl)-5-chloro-4-oxoquinazolin-3(4H)-yl)phenyl)-3-(2-cyanophenyl)urea]	4800	20		> 10000

Reference: patent publication US10221197B2, “Phosphatidylinositol 3-kinase inhibitors” (Gilead Sciences, Inc., priority 2014, dated 2019)
